For 21 compounds, IC50 results are on record in patent US20230081426A1, “COMPOUNDS AND METHODS FOR KRAS MODULATION AND INDICATIONS THEREFOR” (Plexxikon Inc., priority 2020, published 2023).

Assay [1] concerns the target T1, G12V-mutant human KRAS (amino acid residues 1-188) (Homo sapiens, UniProt P01116, G12V).
T1 construct: G12V-mutant human KRAS (amino acid residues 1-188) with FLAG tag was purified from E. coli; made in house; host or cells: E. coli
Kind of assay: KRAS Binding Competition Assay (AlphaScreen; biotinylated KRpep-2d analogue), G12V. The note with it: geometric mean, read-out: KRAS GMean IC50 (uM) MUTATION: G12V.

Assay [2] concerns the target T2, G12D-mutant human KRAS (amino acid residues 1-188) (Homo sapiens, UniProt P01116, G12D).
T2 construct: G12D or G12C-mutant human KRAS (amino acid residues 1-188) with FLAG tag; made in house; host or cells: E. coli
As to the kind of experiment: KRAS Binding Disruption Assay (AlphaScreen; biotinylated KRpep-2d analogue or RAF1-RBD), G12D. Particulars: KRAS G12D; geometric mean; read-out: KRAS GMean IC50 (uM) MUTATION: G12D. The method, boiled down:
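Mutant KRAS (5-20 nM) incubated 1 h at 25° C with test compound and 5-20 nM biotinylated KRpep-2d analogue or RAF1-RBD in 20 mM HEPES pH 7.5, 100 mM NaCl, 5 mM MgCl2, 0.01% Tween-20, 0.01% BSA.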
(Alpha assays give light when donor and acceptor beads are brought close together.)

The IC50 is the midpoint of a concentration-inhibition curve. For `N#CCC(=O)N1[C@@H]2CC[C@H]1CN(c1nc(OCC34CCCN3CCC4)nc3c(F)c(-c4cc(O)cc5ccccc45)c(Cl)cc13)C2` [P-0461, 3-((1R,5S)-3-(6-chloro-8-fluoro-7-(3-hydroxynaphthalen-1-yl)-2-((tetrahydro-1H-pyrrolizin-7a(5H)-yl)methoxy)quinazolin-4-yl)-3,8-diazabicyclo[3.2.1]octan-8-yl)-3-oxopropanenitrile], the IC50 in assay [1] and in assay [2] was 0.0001 to 10 µM each time.
`Cc1cccc2c(O)nn(-c3ccc4c(N5C[C@H]6CC[C@@H](C5)N6)nc(OC[C@@H]5CCCN5C)nc4c3F)c12` [P-0462, 1-(4-((1R,5S)-3,8-diazabicyclo[3.2.1]octan-3-yl)-8-fluoro-2-(((S)-1-methylpyrrolidin-2-yl)methoxy)quinazolin-7-yl)-7-methyl-1H-indazol-3-ol]: the IC50 in assay [1] and in assay [2] was 10 to 100 µM in each case.
For the compound `CN1CCC[C@H]1COc1nc(N2C[C@H]3CC[C@@H](C2)N3C(=O)CC#N)c2cc(F)c(-c3cc(O)cc4ccccc34)c(F)c2n1` [P-0464, 3-((1R,5S)-3-(6,8-difluoro-7-(3-hydroxynaphthalen-1-yl)-2-(((S)-1-methylpyrrolidin-2-yl)methoxy)quinazolin-4-yl)-3,8-diazabicyclo[3.2.1]octan-8-yl)-3-oxopropanenitrile], the IC50 in assay [1] fell in the range of 0.0001 to 10 µM; in assay [2], 10 to 100 µM.
The like results for `Cc1cccc2cccc(-c3ccc4c(N5C[C@H]6CC[C@@H](C5)N6)nc(OC[C@@H]5CCCN5C)nc4c3F)c12` [P-0465, 4-((1R,5S)-3,8-diazabicyclo[3.2.1]octan-3-yl)-8-fluoro-7-(8-methylnaphthalen-1-yl)-2-(((S)-1-methylpyrrolidin-2-yl)methoxy)quinazoline] were, in that order, 10 to 100 µM and 0.0001 to 10 µM.
The like results for `Fc1c(-c2c[nH]c3ccc(Cl)c(F)c23)c(Cl)cc2c(N3C[C@H]4CC[C@@H](C3)N4)nc(OCC34CCCN3CCC4)nc12` [P-0466, 4-((1R,5S)-3,8-diazabicyclo[3.2.1]octan-3-yl)-6-chloro-7-(5-chloro-4-fluoro-1H-indol-3-yl)-8-fluoro-2-((tetrahydro-1H-pyrrolizin-7a(5H)-yl)methoxy)quinazoline] were, in that order, 10 to 100 µM and 0.0001 to 10 µM.
In the same order, the values of `CN1CCC[C@H]1COc1nc(N2C[C@H]3CC[C@@H](C2)N3CC(=O)C2CCNCC2)c2ccc(-c3cc(O)cc4ccccc34)c(F)c2n1` [P-0467, 2-((1R,5S)-3-(8-fluoro-7-(3-hydroxynaphthalen-1-yl)-2-(((S)-1-methylpyrrolidin-2-yl)methoxy)quinazolin-4-yl)-3,8-diazabicyclo[3.2.1]octan-8-yl)-1-(piperidin-4-yl)ethan-1-one] are 10 to 100 µM and 0.0001 to 10 µM.
Regarding `CN1CCC[C@H]1COc1nc(N2C[C@H]3CC[C@@H](C2)N3C(=N)N)c2ccc(-c3cc(O)cc4ccccc34)c(F)c2n1` [P-0468, (1R,5S)-3-(8-fluoro-7-(3-hydroxynaphthalen-1-yl)-2-(((S)-1-methylpyrrolidin-2-yl)methoxy)quinazolin-4-yl)-3,8-diazabicyclo[3.2.1]octane-8-carboximidamide], the 50% inhibitory concentration (IC50) in assay [1] is 10 to 100 µM; in assay [2], 0.0001 to 10 µM.
In the same order, the values of `CN1CCC[C@H]1COc1nc(N2C[C@H]3CC[C@@H](C2)N3c2cnccn2)c2ccc(-c3cc(O)cc4ccccc34)c(F)c2n1` [P-0469, 4-(8-fluoro-2-(((S)-1-methylpyrrolidin-2-yl)methoxy)-4-((1R,5S)-8-(pyrazin-2-yl)-3,8-diazabicyclo[3.2.1]octan-3-yl)quinazolin-7-yl)naphthalen-2-ol] are 100 to 1000 µM and 0.0001 to 10 µM.
In the same order, the values of `CN1CCC[C@H]1COc1nc(N2C[C@H]3CC[C@@H](C2)N3C(=O)Cc2cc[nH]n2)c2ccc(-c3cc(O)cc4ccccc34)c(F)c2n1` [P-0470, 1-((1R,5S)-3-(8-fluoro-7-(3-hydroxynaphthalen-1-yl)-2-(((S)-1-methylpyrrolidin-2-yl)methoxy)quinazolin-4-yl)-3,8-diazabicyclo[3.2.1]octan-8-yl)-2-(1H-pyrazol-3-yl)ethan-1-one] are 10 to 100 µM and 100 to 1000 µM.
In the same order, the values of `CN1CCC[C@H]1COc1nc(N2C[C@H]3CC[C@@H](C2)N3CC(=O)N2CCNCC2)c2ccc(-c3cc(O)cc4ccccc34)c(F)c2n1` [P-0471, 2-((1R,5S)-3-(8-fluoro-7-(3-hydroxynaphthalen-1-yl)-2-(((S)-1-methylpyrrolidin-2-yl)methoxy)quinazolin-4-yl)-3,8-diazabicyclo[3.2.1]octan-8-yl)-1-(piperazin-1-yl)ethan-1-one] are 100 to 1000 µM and 0.0001 to 10 µM.
`CN1CCC[C@H]1COc1nc(N2C[C@H]3CC[C@@H](C2)N3CC(O)CO)c2ccc(-c3cc(O)cc4ccccc34)c(F)c2n1` (stereo partly drawn) [P-0472, 3-((1R,5S)-3-(8-fluoro-7-(3-hydroxynaphthalen-1-yl)-2-(((S)-1-methylpyrrolidin-2-yl)methoxy)quinazolin-4-yl)-3,8-diazabicyclo[3.2.1]octan-8-yl)propane-1,2-diol]: the IC50 in assay [1] and in assay [2] was 0.0001 to 10 µM each time.
With `COc1ccc2c(-c3c(F)cc4c(N5C[C@H]6CC[C@@H](C5)N6)nc(OC[C@@H]5CCCN5C)nc4c3F)c[nH]c2c1` [P-0473, 4-((1R,5S)-3,8-diazabicyclo[3.2.1]octan-3-yl)-6,8-difluoro-7-(6-methoxy-1H-indol-3-yl)-2-(((S)-1-methylpyrrolidin-2-yl)methoxy)quinazoline], the IC50 in assay [1] and in assay [2] was 100 to 1000 µM each time.
For the compound `Cc1c(-c2c(F)cc3c(N4C[C@H]5CC[C@@H](C4)N5)nc(OC[C@@H]4CCCN4C)nc3c2F)cccc1C(F)(F)F` [P-0474, 4-((1R,5S)-3,8-diazabicyclo[3.2.1]octan-3-yl)-6,8-difluoro-7-(2-methyl-3-(trifluoromethyl)phenyl)-2-(((S)-1-methylpyrrolidin-2-yl)methoxy)quinazoline], the figures for the IC50 in assay [1] and in assay [2] were 10 to 100 µM and 0.0001 to 10 µM, respectively.
In the same order, the values of `CN1CCC[C@H]1COc1nc(N2C[C@H]3CC[C@@H](C2)N3CC(=O)Nc2ccccn2)c2ccc(-c3cc(O)cc4ccccc34)c(F)c2n1` [P-0475, 2-((1R,5S)-3-(8-fluoro-7-(3-hydroxynaphthalen-1-yl)-2-(((S)-1-methylpyrrolidin-2-yl)methoxy)quinazolin-4-yl)-3,8-diazabicyclo[3.2.1]octan-8-yl)-N-(pyridin-2-yl)acetamide] are 10 to 100 µM and 0.0001 to 10 µM.
The like results for `Fc1c(-c2c(C(F)(F)F)ccc3[nH]ncc23)ccc2c(N3C[C@H]4CC[C@@H](C3)N4)nc(OCC34CCCN3CCC4)nc12` [P-0506, 4-((1R,5S)-3,8-diazabicyclo[3.2.1]octan-3-yl)-8-fluoro-2-((tetrahydro-1H-pyrrolizin-7a(5H)-yl)methoxy)-7-(5-(trifluoromethyl)-1H-indazol-4-yl)quinazoline] were, in that order, 10 to 100 µM and 0.0001 to 10 µM.
In the same order, the values of `CCc1cccc2[nH]cc(-c3ccc4c(N5C[C@H]6CC[C@@H](C5)N6)nc(OC[C@@]56CCCN5C[C@H](F)C6)nc4c3F)c12` [P-0511, 4-((1R,5S)-3,8-diazabicyclo[3.2.1]octan-3-yl)-7-(4-ethyl-1H-indol-3-yl)-8-fluoro-2-(((2R,7aS)-2-fluorotetrahydro-1H-pyrrolizin-7a(5H)-yl)methoxy)quinazoline] are 0.0001 to 10 µM and 0.0001 to 10 µM.
Turning to `Nc1cc(-c2c(F)cc3c(N4C[C@H]5CC[C@@H](C4)N5)nc(OCC45CCCN4CCC5)nc3c2F)ccc1Cl` [P-0609, 5-(4-((1R,5S)-3,8-diazabicyclo[3.2.1]octan-3-yl)-6,8-difluoro-2-((tetrahydro-1H-pyrrolizin-7a(5H)-yl)methoxy)quinazolin-7-yl)-2-chloroaniline], the 50% inhibitory concentration (IC50) was 100 to 1000 µM in assay [1] and 10 to 100 µM in assay [2].
On to `Fc1c(-c2c[nH]c3ccc(C(F)(F)F)cc23)ccc2c(N3C[C@H]4CC[C@@H](C3)N4)nc(OCC34CCCN3CCC4)nc12` [P-0610, 4-((1R,5S)-3,8-diazabicyclo[3.2.1]octan-3-yl)-8-fluoro-2-((tetrahydro-1H-pyrrolizin-7a(5H)-yl)methoxy)-7-(5-(trifluoromethyl)-1H-indol-3-yl)quinazoline], for which the IC50 is 100 to 1000 µM in assay [1] and 0.0001 to 10 µM in assay [2].
The like results for `CC(C)(C)c1ccc2[nH]cc(-c3ccc4c(N5C[C@H]6CC[C@@H](C5)N6)nc(OCC56CCCN5CCC6)nc4c3F)c2c1` [P-0611, 4-((1R,5S)-3,8-diazabicyclo[3.2.1]octan-3-yl)-7-(5-(tert-butyl)-1H-indol-3-yl)-8-fluoro-2-((tetrahydro-1H-pyrrolizin-7a(5H)-yl)methoxy)quinazoline] were, in that order, 100 to 1000 µM and 10 to 100 µM.
The like results for `OCC1(COc2nc(N3C[C@H]4CC[C@@H](C3)N4)c3ccc(-c4cc(O)cc5ccccc45)c(F)c3n2)CCOCC1` [P-0612, 4-(4-((1R,5S)-3,8-diazabicyclo[3.2.1]octan-3-yl)-8-fluoro-2-((4-(hydroxymethyl)tetrahydro-2H-pyran-4-yl)methoxy)quinazolin-7-yl)naphthalen-2-ol] were, in that order, 10 to 100 µM and 0.0001 to 10 µM.
The like results for `OCC1(COc2nc(N3C[C@H]4CC[C@@H](C3)N4)c3ccc(-c4cc(O)cc5ccccc45)c(F)c3n2)COC1` [P-0613, 4-(4-((1R,5S)-3,8-diazabicyclo[3.2.1]octan-3-yl)-8-fluoro-2-((3-(hydroxymethyl)oxetan-3-yl)methoxy)quinazolin-7-yl)naphthalen-2-ol] were, in that order, 10 to 100 µM and 0.0001 to 10 µM.
